Data as given in US20050163879A1, “Composition for preventing or treating dementia comprising a hydroxycinnamic acid derivative or an extract of a plant of genus Angelicae containing same” (Scigenic Co. Ltd. Biosynergen, Inc., priority 1999, published 2005).

Legend:
[1] = test system: mice administered with β-amyloid (1-42); assay: Y-maze test in mice injected with β-amyloid (1-42) into the cerebral ventricle; assay type: in vivo, mouse; settings: for alternation behavior (%): compared with β-amyloid (1-42) only group
Description: (§1) The administration of β-amyloid (1-42) to a mouse was carried out in accordance with the method described by Laursen & Belknap (J. Pharmacol. Methods, 16, 355-357 (1986)). Specifically, 5 μl of phosphate-buffered saline containing 1.85 μg of β-amyloid (1-42) was put in a 50 μl Hamilton syringe fitted with a 26 gauge needle, the tip of the needle was inserted into the bregma of the mouse and then the β-amyloid (1-42) solution was administered thereto. Each mouse of a control group received an equal amount of β-amyloid (42-1) in place of β-amyloid (1-42). A passive avoidance test was carried out at days 1-2 (day 1: training, day 2: test) and a Y-maze test, at days 3-4 (day 3: training, day 4: test) after the administration.
Spontaneous alternation behavior of a mouse was examined by a Y-maze test in accordance with the method described in Starter et al., Psychopharmacology, 94, 491-495 (1988) as follows.
The Y-maze consisted of three arms shaped like Y. A test mouse was placed in one of the arms such that it faced the arm's terminal and allowed to roan freely through the three arms for […]. The number of alternation was determined by counting the number of occasions the mouse passed the three arms consecutively. Spontaneous alternation behavior was determined as the percentage of the alternation number based on the total number of arm entries.
Further, Y-maze tests were carried out employing the above-prepared mice as in Reference Example 3.
Forty 4- to 5-week old mice each weighing 20 to 25 g were divided into four groups of equal number. Decursinol was dissolved in corn oil, mixed with a mouse fodder, and the mice of two groups were provided with the resulting fodder for 4 weeks at a daily dose of 7.5 mg decursinol/kg or 15 mg decursinol/kg. The mice of the other two groups were provided with a normal mouse fodder containing an equal amount of corn oil as above for 4 weeks. Thereafter, the mice of one of the two normal fodder groups were administered, into their cerebral ventricle, with 1.85 μg of β-amyloid (42-1) (“control group”) and the mice of the remaining three groups, with β-amyloid (1-42) (Aβ1-42), as in Reference Example 1. Then, a passive avoidance test and a Y-maze test were carried out for each group of mice as in Reference Examples 2 and 3, respectively, and the data attained were averaged for each group.

[2] = test system: mice administered with β-amyloid (1-42); assay: Passive avoidance test in mice injected with β-amyloid (1-42) into the cerebral ventricle; assay type: in vivo, mouse; settings: for dementia-preventive effect in passive avoidance test: FIGS. 7A and 7B
Description: as §1
In order to examine the learning and memory-retention ability of a mouse, a passive avoidance test was carried out in accordance with the method described in Song et al., J. Neurochem., 71, 875-878 (1998), as follows.
A passive avoidance case equipped with a light room and a dark room was prepared, the floor of the dark room being designed to deliver an electrical shock to a test animal. First, a mouse was put in the light room and, upon entering the dark room, it received an electrical shock at 0.25 mA for 1 sec. Twenty-four hours after the training, the mouse was put in the light room again and the time it took to enter the dark room was measured as a passive avoidance time. The maximum time was set at 300 sec., i.e., in case when the mouse took more than 300 sec. to enter the dark room, the passive avoidance time was determined to be 300 sec.
Forty 4- to 5-week old mice each weighing 20 to 25 g were divided into four groups of equal number. The Angelicae gigas Nakai extract prepared in Example 1 was dissolved in water to concentrations of 0.08% (w/v) and 0.1% (w/v), respectively, […] the solution/mouse. The mice of the other two groups were provided with normal drinking water for 4 weeks. Thereafter, the mice of one of the two normal drinking water groups were administered into their cerebral ventricle with 1.85 μg of β-amyloid (42-1) (“control group”) and the mice of the remaining three groups, with β-amyloid (1-42) (Aβ1-42), as in Reference Example 1. Then, a passive avoidance test was carried out for each group of mice as in Reference Example 2 and the data attained were averaged for each group.
Fifty 4- to 5-week old mice each weighing 20 to 25 g were divided into five groups by equal number. Ferulic acid was dissolved in water to concentrations of 0.002% (w/v), 0.004% (w/v) and 0.006% (w/v), respectively, […] the solution/mouse. The mice of the other two groups were provided with normal drinking water for 4 weeks. Thereafter, the mice of one of two normal drinking water groups were administered into their cerebral ventricle with 1.85 μg of β-amyloid (42-1) (“control group”) and the mice of the remaining four groups, with β-amyloid (1-42)(Aβ1-42), as in Reference Example 1. Then, a passive avoidance test was carried out for each group of mice as in Reference Example 2 and the data attained were averaged for each group.
Forty 4- to 5-week old mice each weighing 20 to 25 g were divided into four groups of equal number. Decursinol was dissolved in corn oil, mixed with a mouse fodder, and the mice of two groups were provided with the resulting fodder for 4 weeks at a daily dose of 7.5 mg decursinol/kg or 15 mg decursinol/kg. […]

[3] = test system: mouse cerebral neurons; assay: β-amyloid (1-42)-induced leakage of lactate dehydrogenase (LDH) from primary mouse cortical culture; assay type: cell-based; settings: 100 μM ferulic acid 30 minutes before 25 μM β-amyloid (1-42); 24 and 48 hours; vs β-amyloid (1-42) group; FIG. 10
Description: In accordance with the method of Wie et al. (Neurosci. Lett., 225: 93-96 (1997)), glia was cultured from cells of the cerebral cortex of a mouse and neurons of mouse cerebrum were cultured by employing the glia as a substrate.
The culture of mouse cerebral neurons was divided into three groups. Neurons of one group received no treatment (control group). Neurons of the other two groups were treated with 25 μM of β-amyloid (1-42), and one of these two groups were treated with 100 μM of ferulic acid 30 minutes before the administration of β-amyloid (1-42).
The degree of damage in neurons was determined by measuring the concentration of lactate dehydrogenase (LDH), which was released from the damaged or disrupted neurons into the culture medium, in accordance with the method of Wie et al. Samples of the culture medium were taken at 24 and 48 hours after the administration of β-amyloid (1-42), respectively, and their LDH concentrations were measured with a microplate reader.

[4] = test system: OX-42; assay: Immunohistochemical staining of OX-42 in pyriform cortex and amygdaloid nucleus one day after β-amyloid; assay type: in vivo, mouse; settings: 0.006% (w/v) ferulic acid in drinking water for 4 weeks, then β-amyloid (1-42); 1 day after; vs β-amyloid (1-42) only; FIGS. 8c and 8f
Description: 4- to 5-week old mice each weighing 20 to 25 g was divided into three groups. Ferulic acid was dissolved in water to a concentration of 0.006% (w/v), and the mice of one group were provided with the resulting solution instead of water for 4 weeks. The mice of other two groups were provided with normal drinking water for 4 weeks. Thereafter, the mice of one of two normal drinking water groups were administered, into their cerebral ventricle, with 1.85 μg of β-amyloid (42-1) (“control group”) and the mice of the remaining two groups, with β-amyloid (1-42) (β1-42), as in Reference Example 1.
One day after the administration of β-amyloid, each of the mice was anesthetized with sodium pentobarbital and its abdomen was incised. The mouse was fixed by passing 4% paraformaldehyde through its left ventricle and its brain was excised.
In accordance with the method described in Cho et al., J. Comp. Neurol., 369: 264-276 (1996), a section was prepared from the excised brain and immunohistochemical staining was carried out in order to stain […] in the pyriform cortex and the amygdaloid nucleus by employing 1:500 dilution of anti-OX-42 antibody (Halan (Sera-Lab)).

[5] = test system: choline acetyltransferase (ChAT); assay: Immunohistochemical staining of ChAT in septal nucleus 5 days after β-amyloid; assay type: in vivo, mouse; settings: 0.006% (w/v) ferulic acid for 4 weeks, then β-amyloid (1-42), vs β-amyloid (1-42) only, FIG. 9c
Description: Three groups of mice were administered with ferulic acid and/or β-amyloid in accordance with the method of (1). 5 days after the administration of β-amyloid, immunohistochemical staining was carried out according to the method of (1) except for employing 1:750 dilution of anti-choline-acetyltransferase (ChAT) antibody (Chemicon) in order to stain CHAT, an enzyme for acetylcholine synthesis, in the septal nucleus wherein acetylcholine neurons are distributed.

| SMILES | number of arm entries (measure of spontaneous movement) ([1]; decursinol 7.5 mg/kg or 15 mg/kg daily for 4 weeks, FIG. 6C) | alternation behavior (%) ([1]; decursinol 7.5 mg/kg or 15 mg/kg daily for 4 weeks, FIG. 6B) | dementia-preventive effect in passive avoidance test ([2]; decursinol alone, low amount: 2 mg/kg or 3 mg/kg) | decrease in passive avoidance response time due to β-amyloid (1-42) ([2]; decursinol in fodder, 7.5 mg/kg or 15 mg/kg daily for 4 weeks, FIG. 6A) | number of arm entries (measure of spontaneous movement) ([1]; ferulic acid, period of administration varied, FIG. 4B) | alternation behavior (%) ([1]; ferulic acid, period of administration varied, FIG. 4A) | LDH concentration in culture medium [3] | passive avoidance response time ([2]; 0.006& (w/v) ferulic acid for 1, 2, 3 and 4 weeks, FIG. 3B) | decrease in passive avoidance response time ([2]; ferulic acid 0.002%, 0.004% and 0.006% (w/v) in drinking water for 4 weeks before Aβ1-42, FIG. 3A) | dementia-preventive effect in passive avoidance test ([2]; ferulic acid alone, low amount: 0.002% (w/v) or 0.003% (w/v)) | OX-42 staining in pyriform cortex and amygdaloid nucleus [4] | ChAT staining in septal nucleus [5] |
| --- | --- | --- | --- | --- | --- | --- | --- | --- | --- | --- | --- | --- |
| CC1(C)Oc2cc3oc(=O)ccc3cc2C[C@@H]1O [decursinol] | nearly the same for all groups | higher and increased dose-dependently | no dementia-preventive effect | prevented | – | – | – | – | – | – | – | – |
| COc1cc(/C=C/C(=O)O)ccc1O [ferulic acid] | – | – | – | – | nearly the same for all groups | higher and increased in proportion to the period of administration | much lower | becomes increasingly higher with the period of administration | prevented dose-dependently | no dementia-preventive effect | much less pronounced | the decrease was suppressed |
